Results as given in patent US11911436B2, “Amphiphilic peptide chaperones and methods of use” (priority 2021, dated 2024).
Where two headings read alike, the source gives them in different places. Marks after values point to notes of the source that are not given here. Square brackets hold non-standard residues; d marks the D form. Peptide text beside a SMILES is read from it. * marks the point of attachment. Myristoyl = CCCCCCCCCCCCCC(=O)*; dNMeL = CN[C@H](CC(C)C)C(=O)O; TMR = tetramethylrhodamine

What was measured:
[1] = tested on: ARPE-19 cells, hiPSC-NSC cultures, and NSC-derived neurons; experiment: Peptide entry into cells (fluorescent label); conditions: fluorescently labeled peptide
Proteinase K = Proteinase K (Parengyodontium album, UniProt P06873); experiment: Proteinase K incubation, HPLC profiles; assay type: in vitro ADME; conditions: 100 μg peptide, 10 μg Proteinase K, overnight
Proteinase K, sequence (P06873 106-384, species assumed): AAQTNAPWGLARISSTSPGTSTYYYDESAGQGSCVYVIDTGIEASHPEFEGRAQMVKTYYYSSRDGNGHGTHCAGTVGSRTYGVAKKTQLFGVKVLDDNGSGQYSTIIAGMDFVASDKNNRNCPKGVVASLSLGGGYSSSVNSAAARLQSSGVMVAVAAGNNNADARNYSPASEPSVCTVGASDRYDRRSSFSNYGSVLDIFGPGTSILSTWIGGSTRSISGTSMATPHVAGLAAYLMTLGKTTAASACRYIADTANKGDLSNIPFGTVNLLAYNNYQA

ARPE-19 cells [2] = experiment: Sodium iodate cytotoxicity, cell viability imaging; assay type: cell-based; conditions: 7.5 mM sodium iodate, 24 hours
Procedure: Sodium iodate is a chemical that induces oxidative stress and cell death. The ability of CPPRAMC peptide to block the cytotoxic action of sodium iodate was investigated. ARPE-19 cells cultured on a 96-well plate were treated with 7.5 mM sodium iodate and/or CPPRAMC peptide for 24 hours. At the end of the incubation, cell viability imaging was done using the EarlyTox cell integrity kit (Molecular Devices, Sunnyvale, Calif.) (FIG. 6A). The percentage of dead cells in each sample was calculated from the live/dead cell imaging data using the Softmax Pro software (FIG. 6B).
The ability of Myr-CPAMC peptide to block the cytotoxic action of sodium iodate was also investigated. Authenticated ARPE-19 cells cultured on a 96-well plate were treated with 7.5 mM sodium iodate and/or Myr-CPAMC peptide for 24 hours. At the end of the incubation, cell viability imaging was done using the EarlyTox cell integrity kit (Molecular Devices, Sunnyvale, Calif.) (FIG. 7A). The percentage of dead cells in each sample was calculated from the live/dead cell imaging data using the Softmax Pro software (FIG. 7B).

human red blood cells = experiment: Melittin-induced hemolysis of human RBC; assay type: cell-based; conditions: 2% human RBC, room temperature 30 min, OD 540 nm
Procedure: Hemolysis of human red blood cells with melittin was measured with varying concentrations of CPAMC (FIG. 3). To 0.3 mL of 2% human RBC (red blood cell) suspension was added 2 μM melittin and/or peptides taken in 0.7 mL of PBS. The tubes were incubated at room temperature for 30 min, centrifuged, and the OD of the supernatant was measured at 540 nm. PBS and PBS containing 0.1% TritonX-100 served as negative and positive control, respectively.
The protective effect of Myr-CPAMC peptide of human red blood cells (RBC) from melittin-induced hemolysis was also examined. To 0.3 mL of 2% human RBC suspension was added to melittin and/or peptide taken in 0.7 mL of PBS. The tubes were incubated at room temperature for 30 min, centrifuged (FIG. 5A) and the OD of the supernatant was measured at 540 nm. PBS and PBS containing 0.1% TritonX-100 served as negative and positive control, respectively.

ARPE-19 cells [3] = experiment: Peptide toxicity to cells, cell viability imaging; assay type: cell-based; conditions: increasing peptide concentrations
Procedure: Cell viability imaging was performed on cells with increasing concentrations of Myr-CPAMC, with fluorescent staining used to indicate dead cells (FIG. 9A).

[4] = tested on: wild-type C. elegans (N2); experiment: C. elegans N2 lifespan assay at 20° C. with peptide feeding; assay type: in vivo; conditions: N2 worms; for Median Lifespan (Days ± SE): 50 μg peptide with E. coli OP50; for Increase in median survival (%): 50 μg peptide, vs control
Procedure: A schematic of an assay of C. elegans N2 lifespan at 20° C. is shown (FIG. 10A). This involved peptide treatment (50 μg) with E. coli OP50 as a food source. Plates were changed every second day with 50 μg fresh peptide and OP50. Scoring of survival was done every day to the last day of survival. 50 mM FUdR was added in experimental plates between D1 and D5 to prevent progeny production.

[5] = tested on: C. elegans wild-type (N2 strain); experiment: Paraquat (PQ)-induced oxidative stress survival; assay type: in vivo; conditions: five-day old N2 worms, 50 μg peptide 24 hours, 50 mM PQ
Procedure: Five-day old N2 worms were pretreated with 50 μg peptide for 24 hours and subjected to 50 mM PQ. The survival of the worms was monitored every hour under a microscope until the end of survival. […] The median survival value (50% survival) in CPPRAMC, CPAMC, and CP-SC (control) peptides corresponds to 9.6 h, 8.9 h and 5.9 h, respectively, as compared to vehicle control (5.5 h) (FIG. 14).

CL4176 C. elegans = experiment: CL4176 Aβ-induced paralysis and survival assay; assay type: in vivo; conditions: CL4176 worms
Procedure: CL4176 C. elegans is a temperature sensitive strain. Worms are maintained at 15° C. and shifted to increased temperature to cause Aβ-induced paralysis in adults. This has been used as a C. elegans model of Alzheimer's disease.
A scheme of a paralysis assay with CL4176 worms is shown (FIG. 13A). Peptide treatment began on CL4176 embryos and continued throughout the experiment. After 2 days at 15° C., the temperature was increased to the restrictive temperature of 25° C. Worms were scored for survival and paralysis.
Example images of paralyzed and non-paralyzed worms are shown (FIG. 13C).

CL2006 C. elegans = experiment: CL2006 lifespan at 20° C. (paralysis and death model); assay type: in vivo; conditions: CL2006 worms, 50 μg peptide
Procedure: CL2006 C. elegans were used as a paralysis and death model. Worms are maintained at 15° C., with adult onset paralysis induced at 20° C.
50 μg CPAMC and CPPRAMC peptide or controls were added to CL2006 worms, and the fraction left alive over time at the restrictive temperature of 20° C. was quantified (FIG. 12). […] (FIG. 12).

C. elegans (N2) worms = experiment: Juglone (JG)-induced oxidative stress survival; assay type: in vivo; conditions: N2 worms at day 5, 50 μg peptide 24 h, 50 μM JG
Procedure: N2 worms at day 5 pretreated for 24 h with 50 μg CPAMC or CP-SC (control) and subjected to 50 μM JG. Survival was checked every hour under a microscope until the end of survival. The median survival value in CPAMC and CP-SC (control) peptides corresponds to 7.3 h and 5.9 h, respectively, compared to vehicle control (4.9 h) (FIG. 15).

C. elegans (N2 strain) = experiment: Thermotolerance assay, continuous heat stress at 35° C.; assay type: in vivo; conditions: N2 worms
Procedure: The lifespan of wild type C. elegans with and without peptide at a restrictive temperature was measured.
A schematic representation of the thermotolerance assay used is shown (FIG. 11A). 24 hours of 50 μg peptide treatment at 20° C. of a synchronized population of wild type C. elegans was followed by a continuous heat stress at 35° C. Worms were scored every two hours for 24 hours for survival.

[6] = tested on: ARPE-19 cells, hiPSC-NSC cultures, and NSC-derived neurons

CC[C@@H](C)[C@@H](NC(=O)[C@H](NC(=O)[C@@H](Cc1ccccc1)NC(=O)[C@@H](CC(C)C)NC)C(C)C)C(=O)N[C@H](Cc1ccccc1)C(=O)N[C@H](CC(C)C)C(=O)N[C@@H](C(=O)N[C@H](Cc1c[nH]cn1)C(=O)N[C@H](Cc1ccccc1)C(=O)N[C@H](CO)C(=O)N1CCC[C@@H]1C(=O)NCC(=O)N[C@H](CCCNC(=N)N)C(=O)N[C@H](CC(=O)O)C(=O)N[C@H](CCC(=O)O)C(=O)N[C@H](CC(=O)O)C(=O)N[C@H](CCCCN)C(=O)N[C@H](CC(=O)O)C(=O)N[C@H](CCC(=O)O)C(=O)N[C@H](CCCCN)C(N)=O)C(C)C [CPPRAMC, CH3-lfviflvhfspgrdedkdek-NH2] (H-[dNMeL][dF][dV][dI][dF][dL][dV][dH][dF][dS][dP]G[dR][dD][dE][dD][dK][dD][dE][dK]-NH2; N-terminus and C-terminus assumed)
entry of peptide into cells [1]: readily penetrates neural cells
resistance to proteolytic cleavage (Proteinase K): resistant to proteolytic cleavage

CCCCCCCCCCCCCC(=O)N[C@@H](CCCCN)C(=O)N[C@@H](CC(C)C)C(=O)N[C@@H](Cc1ccccc1)C(=O)N[C@H](C(=O)N[C@H](C(=O)N[C@@H](Cc1ccccc1)C(=O)N[C@@H](CC(C)C)C(=O)N[C@H](C(=O)N[C@@H](Cc1c[nH]cn1)C(=O)N[C@@H](Cc1ccccc1)C(=O)N[C@@H](CO)C(=O)N1CCC[C@H]1C(=O)NCC(=O)N[C@@H](CCCNC(=N)N)C(=O)N[C@@H](CC(=O)O)C(=O)N[C@@H](CCC(=O)O)C(=O)N[C@@H](CC(=O)O)C(=O)N[C@@H](CCCCN)C(=O)N[C@@H](CC(=O)O)C(=O)N[C@@H](CCC(=O)O)C(=O)N[C@@H](CCCCN)C(N)=O)C(C)C)[C@@H](C)CC)C(C)C [Myr-CPAMC] (Myristoyl-KLFVIFLVHFSPGRDEDKDEK-NH2)
percentage of dead cells with sodium iodate and peptide (ARPE-19 cells [2]): protects ARPE-19 cells from sodium iodate-induced cytotoxicity
hemolysis by melittin in presence of peptide (human red blood cells): protects human red blood cells (RBC) from melittin-induced hemolysis
toxicity of peptide to cells (ARPE-19 cells [3]): non-toxic to cells

CH3-DFVIFLDVKHFSPEDLTVK-NH2 (Me-DFVIFLDVKHFSPEDLTVK-NH2; SMILES CC[C@H](C)[C@H](NC(=O)[C@@H](NC(=O)[C@H](Cc1ccccc1)NC(=O)[C@H](CC(=O)O)NC)C(C)C)C(=O)N[C@@H](Cc1ccccc1)C(=O)N[C@@H](CC(C)C)C(=O)N[C@@H](CC(=O)O)C(=O)N[C@H](C(=O)N[C@@H](CCCCN)C(=O)N[C@@H](Cc1c[nH]cn1)C(=O)N[C@@H](Cc1ccccc1)C(=O)N[C@@H](CO)C(=O)N1CCC[C@H]1C(=O)N[C@@H](CCC(=O)O)C(=O)N[C@@H](CC(=O)O)C(=O)N[C@@H](CC(C)C)C(=O)N[C@H](C(=O)N[C@H](C(=O)N[C@@H](CCCCN)C(N)=O)C(C)C)[C@@H](C)O)C(C)C) [MC-αA, Parent peptide from αA crystallin]
Median Lifespan (Days ± SE) [4]: 16.10 ± 0.25 days
Increase in median survival (%) [4]: 20* %

CH3-VPTLKdlplknvedkfhrsfvesvk-NH2 [CP-cp, reference compound]
median survival value (50% survival) [5]: 5.9 h
% increase in median survival (CL4176 C. elegans; 25° C., vs control): 0%
Median survival Hours ± SE (CL4176 C. elegans; 2 days at 15° C., then 25° C.): 44.7 ± 0.4 h
Median survival ± SE (days at 20° C.) (CL2006 C. elegans): 7.0 ± 0.28 days
% increase in survival (CL2006 C. elegans; vs control): 2.0%
Median Lifespan (Days ± SE) [4]: 13.23 ± 0.20 days
Increase in median survival (%) [4]: 0%
median survival value (C. elegans (N2) worms): 5.9 h
% increase in survival (C. elegans (N2 strain); 35° C., 50 μg peptide, vs control): 0%
Median survival ± SE (hours at 35° C.) (C. elegans (N2 strain); 24 hours 50 μg peptide at 20° C., then 35° C.): 7.4 ± 0.4 h

Myristoyl-{K(TMR)}LFVIFLVHFSPGRDEDKDEK-NH2 (Myristoyl-K(TMR)LFVIFLVHFSPGRDEDKDEK-NH2) [Myr-(TMR)-CPAMC, Lipid-conjugated, TMR-labeled peptide]
entry of peptide into cells [6]: can enter into ARPE-19 cells at different concentrations
toxicity of peptide to cells (ARPE-19 cells [3]): not toxic to cells
